Assay results from patent publication US20230032101A1, “FIVE-MEMBERED HETEROCYCLIC OXOCARBOXYLIC ACID COMPOUND AND MEDICAL USE THEREOF” (Shanghai Institute of Materia Medica, Chinese Academy of …, priority 2019, published 2023).

Assays:
[1] = tested on: type I interferon pathway (ISG) in human THP1-Blue-ISG cells; assay: Activation of type I interferon pathway (ISG) in human THP1-Blue-ISG cells (Quanti-Blue, OD650); type: cell-based; conditions: Homo sapiens, THP1-Blue ISG; 10 μM, 24 h; Compound OD650/Control OD650; ≥2 times considered valid; read-out: Fold Change
Experimental: 20 μL of compound diluted with physiological saline was added to each well of a 96-well cell culture plate, the positive control compound was ADU-S100, and the solvent control group was added with 20 μL of physiological saline containing DMSO. THP1-Blue-ISG cells were counted, the cell concentration was adjusted to 5×10^5/mL, and 180 μL of cells were added to each well for incubation. Therefore, the final volume of each test well was 200 μL, the content of DMSO was 0.1%/0.5%, the test concentration of the compound was 10/50 μM, and the positive control compound was ADU-S100 at a final concentration of 10 μM, and incubated for 24 hours for detection.
After 24 hours, 20 μL of the culture solution was took out from each well to a new 96-well plate, 180 μL of chromogenic solution Quanti-Blue was added, placed in a 37° C. incubator, and the OD650 value was measured after 0.5-2 hours. The experiment was repeated twice.
The experimental results were used to evaluate the ability of compounds to induce the secretion of type I interferon pathway (ISG) by the Fold Change, which was calculated as follows:
Fold Change=Compound OD650/Control OD650, wherein the results of ≥2 times were considered valid.

[2] = tested on: type I interferon pathway in murine Raw-lucia cells; assay: Activation of type I interferon pathway in murine Raw-lucia cells (QUANTI-Luc luminescence); type: cell-based; conditions: Mus musculus, 24 h, Compound Luminescence/Control Luminescence, ≥2 times considered valid, read-out: Fold Change
Experimental: Raw-lucia cells were counted, the cell concentration was adjusted to 5×10^5/mL, and 180 μL of cells were added to each well for incubation. 20 μL of compound diluted with physiological saline was added to each well of a 96-well cell culture plate after cells were adhered, the concentration of the compound was 50 μM/100 μM.
After 24 hours, 20 μL of the culture medium was took out from each well to a new 96-well plate with bottom-transmitting, 50 μL of the luciferase detection reagent QUANTI-Luc™ was added, and the […] was measured immediately (in the dark). The experiment was repeated twice.

[3] = tested on: type I interferon pathway (ISG) in human THP1-Blue-ISG cells; assay: Activation of type I interferon pathway (ISG) in human THP1-Blue-ISG cells (Quanti-Blue, OD650); type: cell-based; conditions: 24 h, Compound OD650/Control OD650, ≥2 times considered valid, read-out: Fold Change
human-derived STING = human-derived STING (Homo sapiens, UniProt Q86WV6); conditions: cited from earlier work
Chain of human-derived STING (Q86WV6 whole entry H232R): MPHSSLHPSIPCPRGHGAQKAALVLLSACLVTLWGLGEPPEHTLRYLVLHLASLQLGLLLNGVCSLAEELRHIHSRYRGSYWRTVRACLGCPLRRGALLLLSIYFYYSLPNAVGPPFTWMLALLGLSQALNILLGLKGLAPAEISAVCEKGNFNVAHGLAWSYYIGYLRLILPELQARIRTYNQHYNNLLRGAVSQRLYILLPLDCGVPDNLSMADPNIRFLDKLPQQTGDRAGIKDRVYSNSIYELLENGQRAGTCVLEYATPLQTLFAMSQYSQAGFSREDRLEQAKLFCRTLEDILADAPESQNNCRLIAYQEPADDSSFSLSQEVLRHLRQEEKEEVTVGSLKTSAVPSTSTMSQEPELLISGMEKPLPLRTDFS

[4] = tested on: 4T1 mouse breast cancer cells; assay: 4T1 breast cancer orthotopic tumor model in vivo; conditions: Balb/C mice, intratumoral injection (IT), days 1/2/3/4/7; FIG. 1
Experimental: 6-8 week old Balb/C mice were inoculated with 2.5×10^5 4T1 mouse breast cancer cells in the mammary fat pad of each mouse. When the tumor volume grew to about 100 mm^3, the mice were randomly divided into 5 groups, 6 mice in each group.
(§1) Experimental results were evaluated in the form of tumor volume growth curves.

[5] = tested on: CT26 mouse colon cancer cells; assay: CT26 colon cancer subcutaneous xenograft model in vivo; conditions: Balb/C mice, intratumoral injection (IT), days 1/2/3/4/7; FIG. 2
Experimental: […] When the tumor volume grew to about 100 mm^3, the mice were randomly divided into 5 groups, 6 mice in each group.
as §1

Row | Structure (SMILES) | fold induction at 100 µM [2] | fold induction at 50 µM [2] | fold induction at 30 µM [3] | other results
1 | O=C(O)CCC(=O)c1cc(-c2c[nH]c3c(F)cccc23)co1 [I′-58, 4-(4-(7-fluoro-1H-indol-3-yl)furan-2-yl)-4-oxobutyric Acid] | 14.2 |  |  | fold induction at 10 µM [1]: 4.14
2 | O=C(O)CCC(=O)c1cc(-c2c[nH]c3ccccc23)co1 [I′-30, 4-(4-(1H-indol-3-yl)furan-2-yl)-4-oxobutyric Acid] | 8.13 |  |  | fold induction at 12.5 µM ([3]; 12.5 μM): 22.7
3 | CC(CC(=O)c1cc(-c2coc3ccccc23)co1)C(=O)O (centres unmarked) [I′-37, 4-(4-(benzofuran-3-yl)furan-2-yl)-2-methyl-4-oxobutyric Acid] |  | 3.79 |  | 
4 | O=C(O)CCC(=O)c1cc(-c2c[nH]c3cc(F)ccc23)co1 [I′-38, 4-(4-(6-fluoro-1H-indol-3-yl)furan-2-yl)-4-oxobutyric Acid] |  | 7.1 |  | fold induction at 10 µM [1]: 7.15
5 | Cc1ccc2c(=O)c3cccc(CC(=O)O)c3oc2c1C [DMXAA] |  |  |  | agonistic effect on STING (human-derived STING): ineffective
6 | O=C(O)CCC(=O)c1cc(-c2coc3ccc(F)cc23)cs1 [I′-54, 4-(4-(5-fluorobenzofuran-3-yl)thiophen-2-yl)-4-oxobutyric Acid] | 4.5 |  |  | 
7 | O=C(O)CCC(=O)c1cc(-c2coc3ccccc23)cs1 [I′-14, 4-(4-(benzofuran-3-yl)thiophen-2-yl)-4-oxobutyric Acid] | 18.1 |  |  | fold induction at 25 µM [3]: 20.7
8 | O=C(O)CCC(=O)c1cc(-c2coc3c(F)cccc23)cs1 [I′-55, 4-(4-(7-fluorobenzofuran-3-yl)thiophen-2-yl)-4-oxobutyric Acid] |  | 12.2 | 16 | 
9 | O=C(O)CCC(=O)c1cc(-c2coc3ccccc23)co1 [I′-17, 4-(4-(benzofuran-3-yl)furan-2-yl)-4-oxobutyric acid] |  | 12.5 |  | fold induction at 25 µM [3]: 21.6
10 | COC(=O)CC(=O)c1cc(-c2coc3ccccc23)co1 [Example I-31, methyl 3-(4-(benzofuran-3-yl)furan-2-yl)-3-oxopropanoate] |  |  | 43.2 | 
11 | O=C(O)CCC(=O)c1cc(-c2c[nH]c3ccccc23)cs1 [I′-31, 4-(4-(1H-indol-3-yl)thiophen-2-yl)-4-oxobutyric Acid] |  | 21.8 |  | fold induction at 10 µM [1]: 13.8; anti-tumor effect (tumor volume growth curves) [4]: significant anti-tumor effect; tumor regression [4]: tumor regression effect is achieved in some mouse tumor models; anti-tumor effect (tumor volume growth curves) [5]: significant anti-tumor effect; tumor regression [5]: tumor regression effect is achieved in some mouse tumor models
12 | O=C(O)CCCC(=O)c1cc(-c2c[nH]c3ccccc23)cs1 [Example I-13, 5-(4-(1H-indol-3-yl)thiophen-2-yl)-5-oxopentanoic Acid] |  |  | 12.6 | 
13 | COC(=O)CC(=O)c1cc(-c2coc3ccccc23)cs1 [Example I-26, methyl 3-(4-(benzofuran-3-yl)thiophen-2-yl)-3-oxopropanoate] |  |  |  | fold induction at 20 µM ([3]; 20 μM): 14.6
14 | O=C(O)CCC(=O)c1cc(-c2c[nH]c3cc(F)ccc23)cs1 [I′-46, 4-(4-(6-fluoro-1H-indol-3-yl)thiophen-2-yl)-4-oxobutyric Acid] | 31.4 |  |  | fold induction at 10 µM [1]: 11.3
15 | O=C(O)CCC(=O)c1scc(-c2c[nH]c3ccccc23)c1F [I′-56, 4-(3-fluoro-4-(1H-indol-3-yl)thiophen-2-yl)-4-oxobutyric Acid] |  | 12.9 | 14.9 | 
16 | O=C(O)CCC(=O)c1cc(-c2coc3cc(F)ccc23)co1 [I′-42, 4-(4-(6-fluorobenzofuran-3-yl)furan-2-yl)-4-oxobutyric Acid] | 7.45 |  | 16.8 | 
17 | COC(=O)CC(=O)c1cc(-c2ccc3ccoc3c2)co1 [Example I-36, methyl 3-(4-(benzofuran-6-yl)furan-2-yl)-3-oxopropanoate] |  |  | 29.7 | 
18 | COC(=O)CC(=O)c1cc(-c2ccc(OC)c(OC)c2)co1 [Example I-34, methyl 3-(4-(3,4-dimethoxyphenyl)furan-2-yl)-3-oxopropanoate] |  |  | 23.7 | 
19 | O=C(O)CCC(=O)c1cc(-c2c[nH]c3ccc(F)cc23)cs1 [I′-48, 4-(4-(5-fluoro-1H-indol-3-yl)thiophen-2-yl)-4-oxobutyric Acid] | 7.63 |  | 14.7 | 
20 | O=C(O)CCC(=O)c1cc(-c2c[nH]c3c(F)cccc23)cs1 [I′-49, 4-(4-(7-fluoro-1H-indol-3-yl)thiophen-2-yl)-4-oxobutyric Acid] |  | 36.2 |  | fold induction at 10 µM [1]: 10.3
21 | O=C(O)CCC(=O)c1cc(-c2c[nH]c3cccc(F)c23)cs1 [I′-51, 4-(4-(4-fluoro-1H-indol-3-yl)thiophen-2-yl)-4-oxobutyric Acid] | 9.75 |  |  | fold induction at 10 µM [1]: 5.27
